Data on 15 compounds can be found in US5948791A, “Quinoline derivatives for treating malaria” (Hoffmann-La Roche Inc., priority 1995, dated 1999).

In brackets after ≈: the same amount, converted by molar mass. Where a name gives a salt, the structure may show the parent alone. Read-outs that look alike come from different tables or passages of the source.

In test [1] the test system is Plasmodium falciparum strain NF54. Description: Growth inhibition of Plasmodium falciparum NF54 (chloroquine-sensitive) in vitro, [G-3H]-hypoxanthin incorporation. The class given is cell-based. The settings on record: chloroquine-sensitive strain NF54, 72 h, read-out: IC50 for P. falciparum NF54. The method, boiled down: (§1)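 Asynchronous intraerythrocytic cultures in human A+ erythrocytes (0.7% parasitemia, 2.5% suspension) in RPMI 1640 with HEPES, NaHCO3 and human serum, exposed to compound titrated over 6-7 steps for 72 h at 37° C, 3% O2. Growth by [G-3H]-hypoxanthin incorporation against untreated controls; IC50 by logit regression.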

In a further test the test system is Plasmodium falciparum K1. Description: Growth inhibition of Plasmodium falciparum K1 (chloroquine-resistant) in vitro, [G-3H]-hypoxanthin incorporation. It is filed as cell-based, Plasmodium falciparum (strain K1). The conditions noted are these: for IC50: Plasmodium falciparum, K1, 72 h, read-out: IC50 for P. falciparum K1; for Resistance index: ratio of the IC50 for K1 and the IC50 for NF54. The gist of the method: as §1

A further test has as its system Plasmodium berghei. The test is described as follows: animal or person. The settings on record: Plasmodium berghei, mice, blood smears 48 h after treatment. It is filed as in vivo, Plasmodium berghei (strain ANKA) in mice. The method, boiled down:
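Male albino mice (~25 g) infected i.v. on D0 with P. berghei ANKA (0.2 ml of 10^8 parasitized erythrocytes/ml); single s.c. and p.o. dose 24 h post-infection, 10 mg/kg screen then titration.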

Setting [2] is: po, single peroral dose of 10 mg/kg, read-out: Growth inhibition in % after po administration (GI%, percentage reduction of the parasitemia).
Where [3] appears, read: sc, single subcutaneous dose of 10 mg/kg, read-out: Growth inhibition in % after sc administration (GI%, percentage reduction of the parasitemia).

As usually defined, the IC50 is the concentration at which inhibition is half-maximal. As to `CC(C)c1ccc(CNC(C)(C)CNc2ccnc3cc(Cl)ccc23)cc1.Cl.Cl` [Example 50, N1-(7-Chloro-quinolin-4-yl)-N2-(4-isopropyl-benzyl)-2-methyl-propane-1,2-diamine dihydrochloride], the IC50 turned out to be 14.2 ng/mL in test [1] and 14.3 ng/mL in the test with Plasmodium falciparum K1. Besides, the Resistance index in the test with Plasmodium falciparum K1 is 1.0. The inhibition in vivo at 10 mg/kg with Plasmodium berghei (setting [2]) worked out at 93%; in the test with Plasmodium berghei (setting [3]) it was 96%.

Turning to `COc1cccc(CNC(C)(C)CNc2ccnc3cc(Cl)ccc23)c1O.Cl.Cl` [Example 30, N1-(7-Chloro-quinolin-4-yl)-N2-(2-hydroxy-3-methoxy-benzyl)-2-methyl-propane-1,2-diamine dihydrochloride], the IC50 in test [1] amounted to 6.7 ng/mL; with Plasmodium falciparum K1 it was 11.4 ng/mL. Besides, the Resistance index with Plasmodium falciparum K1 is given as 1.7. Moreover, the inhibition in vivo at 10 mg/kg came out at 70% in the test with Plasmodium berghei (setting [2]) and 95% with Plasmodium berghei (setting [3]).

`COc1ccc(CNC(C)(C)CNc2ccnc3cc(Cl)ccc23)c(O)c1.Cl.Cl` [Example 29, N1-(7-Chloro-quinolin-4-yl)-N2-(2-hydroxy-4-methoxy-benzyl)-2-methyl-propane-1,2-diamine dihydrochloride]: the figures for the IC50 (in test [1]; in the test with Plasmodium falciparum K1) were 7.7 ng/mL and 16.2 ng/mL, respectively. Further, in the test on Plasmodium falciparum K1, the Resistance index came to 2.1. In addition, the inhibition in vivo at 10 mg/kg with Plasmodium berghei (setting [2]) is 74%; in the test on Plasmodium berghei (setting [3]) it was 99%.

For the compound `CC(C)(CNc1ccnc2cc(Cl)ccc12)NCc1ccc(C(F)(F)F)cc1` [Example 9, N1-(7-Chloro-quinolin-4-yl)-N2-(4-trifluoromethyl-benzyl)-2-methyl-propane-1,2-diamine], the IC50 came out at 13.2 ng/mL (≈ 0.0324 µM) in test [1] and 16.7 ng/mL (≈ 0.0409 µM) in the test on Plasmodium falciparum K1. In addition, the Resistance index in the test on Plasmodium falciparum K1 worked out at 1.3. The values for the inhibition in vivo at 10 mg/kg in the test with Plasmodium berghei (setting [2]) and with Plasmodium berghei (setting [3]) were 66% and 74%, respectively.

Take `CC(C)(CNc1ccnc2cc(Cl)ccc12)NCc1cc(C(F)(F)F)cc(C(F)(F)F)c1` [Example 10, N1-(7-Chloro-quinolin-4-yl)-N2-(3,5-bis-trifluoromethyl-benzyl)-2-methyl-propane-1,2-diamine]: the half-maximal inhibitory concentration (IC50) was found to be 51.7 ng/mL (≈ 0.109 µM) in test [1] and 50.4 ng/mL (≈ 0.106 µM) in the test with Plasmodium falciparum K1. For the same compound, in the test on Plasmodium falciparum K1, the Resistance index is 1.0. Further, the inhibition in vivo at 10 mg/kg came to 99.2% in the test with Plasmodium berghei (setting [2]) and 99.3% in the test with Plasmodium berghei (setting [3]).

On to `Cl.Cl.Clc1ccc2c(N[C@H]3CCCC[C@@H]3NCc3ccc(Cl)c(Cl)c3)ccnc2c1` [Example 63, (1S,2S)-N1-(7-Chloro-quinolin-4-yl)-N2-(3,4-dichloro-benzyl)-cyclohexane-1,2-diamine dihydrochloride], for which the values for the IC50 (in test [1]; with Plasmodium falciparum K1) were 10.1 ng/mL and 14.6 ng/mL, respectively. Further, the Resistance index with Plasmodium falciparum K1 stood at 1.4. Also, the inhibition in vivo at 10 mg/kg with Plasmodium berghei (setting [2]) and in the test with Plasmodium berghei (setting [3]) was 99.9% throughout.

As for `Cl.Cl.Clc1ccc2c(N[C@H]3CC[C@H](NCCc4ccc(Cl)c(Cl)c4)CC3)ccnc2c1` [Example 99, trans-N1-(7-Chloro-quinolin-4-yl)-N4-[2-(3,4-dichloro-phenyl)-ethyl]-cyclohexane-1,4-diamine dihydrochloride], the IC50 was determined as 3.3 ng/mL in test [1] and 4.2 ng/mL in the test with Plasmodium falciparum K1. Moreover, in the test with Plasmodium falciparum K1, the Resistance index is listed as 1.3. Further, the inhibition in vivo at 10 mg/kg in the test on Plasmodium berghei (setting [2]) worked out at 91%; with Plasmodium berghei (setting [3]) it was 96%.

On to `COc1cccc(OC)c1CN[C@H]1CC[C@@H](Nc2ccnc3cc(Cl)ccc23)CC1.Cl.Cl` [Example 16, cis-N1-(7-Chloro-quinolin-4-yl)-N4-(2,6-dimethoxy-benzyl)-cyclohexane-1,4-diamine dihydrochloride], for which the IC50 amounted to 2 ng/mL in test [1] and 17 ng/mL in the test with Plasmodium falciparum K1. Also, the Resistance index in the test on Plasmodium falciparum K1 came to 8.5. For the same compound, the inhibition in vivo at 10 mg/kg with Plasmodium berghei (setting [2]) is 99.8%; in the test with Plasmodium berghei (setting [3]) it was 99.9%.

Turning to `CC(C)(CNc1ccnc2cc(Cl)ccc12)NCc1ccc([N+](=O)[O-])cc1` [Example 47, N1-(7-Chloro-quinolin-4-yl)-N2-(4-nitro-benzyl)-2-methy-propane-1,2-diamine dihydrochloride], the IC50 was determined as 9.4 ng/mL in test [1] and 13.6 ng/mL with Plasmodium falciparum K1. In addition, the Resistance index in the test with Plasmodium falciparum K1 was 1.4. For the same compound, the inhibition in vivo at 10 mg/kg with Plasmodium berghei (setting [2]) is 70%; with Plasmodium berghei (setting [3]), 79%.

Take `COc1cc(O)c(CN[C@H]2CC[C@@H](Nc3ccnc4cc(Cl)ccc34)CC2)c(OC)c1.Cl.Cl` [Example 18, cis-2-{[4-(7-Chloro-quinolin-4-ylamino)-cyclohexylamino]-methyl}-3,5-dimethoxy-phenol dihydrochloride]: the IC50 came out at 5.5 ng/mL in test [1] and 21 ng/mL in the test on Plasmodium falciparum K1. Moreover, in the test on Plasmodium falciparum K1, the Resistance index was determined as 3.8. The inhibition in vivo at 10 mg/kg with Plasmodium berghei (setting [2]) and in the test on Plasmodium berghei (setting [3]) was 100% throughout.

As to `Cl.Cl.O=[N+]([O-])c1ccc(CN[C@H]2CC[C@@H](Nc3ccnc4cc(Cl)ccc34)CC2)cc1` [Example 84, cis-N1-(7-Chloro-quinolin-4-yl)-N4-(4-nitro-benzyl)-cyclohexane-1,4-diamine dihydrochloride], the 50% inhibitory concentration (IC50) in test [1] came out at 6.9 ng/mL; in the test with Plasmodium falciparum K1 it was 7.8 ng/mL. The Resistance index with Plasmodium falciparum K1 is 1.1. Moreover, the inhibition in vivo at 10 mg/kg in the test on Plasmodium berghei (setting [2]) and in the test with Plasmodium berghei (setting [3]) was 100% each time.

`COc1cccc(CCN[C@H]2CC[C@H](Nc3ccnc4cc(Cl)ccc34)CC2)c1OC.Cl.Cl` [Example 105, trans-N1-(7-Chloro-quinolin-4-yl)-N4-[2-(2,3-dimethoxy-phenyl)-ethyl]-cyclohexane-1,4-diamine dihydrochloride]: the 50% inhibitory concentration (IC50) in test [1] was determined as 3.4 ng/mL; with Plasmodium falciparum K1, 15.3 ng/mL. In addition, the Resistance index in the test on Plasmodium falciparum K1 was found to be 4.5. Besides, the inhibition in vivo at 10 mg/kg in the test on Plasmodium berghei (setting [2]) came to 55%; in the test on Plasmodium berghei (setting [3]), 99%.

As for `CN(C)c1ccc(CN[C@H]2CC[C@H](Nc3ccnc4cc(Cl)ccc34)CC2)cc1.Cl.Cl.Cl` [Example 113, trans-N1-(7-Chloro-quinolin-4-yl)-N4-(4-dimethylamino-benzyl)-cyclohexane-1,4-diamine trihydrochloride], the IC50 in test [1] is 3 ng/mL; with Plasmodium falciparum K1, 7.6 ng/mL. In addition, in the test on Plasmodium falciparum K1, the Resistance index was 2.5. In addition, the inhibition in vivo at 10 mg/kg with Plasmodium berghei (setting [2]) came out at 99.7%; with Plasmodium berghei (setting [3]), 99.9%.

In the case of `Cl.Cl.Clc1ccc(CN[C@@H]2CC[C@H](Nc3ccnc4cc(Cl)ccc34)C2)cc1` (relative stereo) [Example 68, cis-N1-(7-Chloro-quinolin-4-yl)-N3-(4-chloro-benzyl)-cyclopentane-1,3-diamine dihydrochloride], the results for the IC50 (in test [1]; with Plasmodium falciparum K1) were 5.9 ng/mL and 14.6 ng/mL, respectively. Further, in the test on Plasmodium falciparum K1, the Resistance index stood at 2.5. Also, the inhibition in vivo at 10 mg/kg with Plasmodium berghei (setting [2]) was determined as 99.9%; in the test on Plasmodium berghei (setting [3]) it was 99.6%.

Consider `Cl.Cl.Clc1cccc(CCN[C@H]2CC[C@H](Nc3ccnc4cc(Cl)ccc34)CC2)c1` [Example 96, trans-N1-[2-(3-Chloro-phenyl)-ethyl]-N4-(7-chloro-quinolin-4-yl)-cyclohexane-1,4-diamine dihydrochloride], for which the IC50 came out at 1.6 ng/mL in test [1] and 9 ng/mL in the test with Plasmodium falciparum K1. Further, the Resistance index in the test with Plasmodium falciparum K1 was found to be 5.6. In addition, the inhibition in vivo at 10 mg/kg with Plasmodium berghei (setting [2]) amounted to 95%; in the test with Plasmodium berghei (setting [3]) it was 98%.
